Assay results: patent US20090082326A1, “SOLUBLE DOSAGE FORMS CONTAINING CEPHEM DERIVATIVES SUITABLE FOR PARENTERAL ADMINISTRATION” (Forest Laboratories Holdings Limited, priority 2007, published 2009)

Experiments:
Assay type in all cases: physicochemical
[1] = pH solubility profile: one hour and three hour kinetic solubility in USP buffers at 0.05 M; conditions: aqueous buffer, thermodynamic from solid; for solubility at 1 h / solubility at 3 h: USP buffer 0.05 M, 25° C.
[2] = One hour kinetic solubility in acetic acid/sodium acetate ion mixtures; conditions: 25 °C, thermodynamic from solid
[3] = One hour kinetic solubility in citric acid/sodium citrate ion mixtures; conditions: 25 °C, aqueous buffer, thermodynamic from solid
[4] = One hour kinetic solubility in DL arginine mixtures; conditions: 25 °C, aqueous buffer, thermodynamic from solid
[5] = One hour kinetic solubility in L-arginine mixtures; conditions: 25 °C, aqueous buffer, thermodynamic from solid
[6] = One hour kinetic solubility in histidine mixtures; conditions: USP buffer with histidine, 25 °C, aqueous buffer, thermodynamic from solid
[7] = Aqueous solubility (stated in the description); conditions: water

CC(=O)[O-].CCO/N=C(\C(=O)N[C@@H]1C(=O)N2C(C(=O)O)=C(Sc3nc(-c4cc[n+](C)cc4)cs3)CS[C@H]12)c1nsc(NP(=O)(O)O)n1.O [ceftaroline fosamil, (6R,7R)-7-[[2(Z)-ethoxyimino-[5-(phosphonoamino)-1,2,4-thiadiazol-3-yl]acetyl]amino]-3-[[4-(1-methyl-pyridinium-4-yl)thiazol-2-yl]sulfanyl]-8-oxo-5-thia-1-azabicyclo[4.2.0]oct-2-en-2-carboxylate monoacetate monohydrate]
solubility ([1]; USP buffers, 25 °C, over pH about 3 to about 8, 0.05 M): 25 to 36 mg/mL | solubility at 1 h ([1]; pH 1.2): 6 mg/mL | solubility at 3 h ([1]; pH 1.2): 6 mg/mL | solubility at 1 h ([1]; pH 1.9): 9 mg/mL | solubility at 3 h ([1]; pH 1.9): 9 mg/mL | solubility at 1 h ([1]; pH 2.9): 27 mg/mL | solubility at 3 h ([1]; pH 2.9): 27 mg/mL | solubility at 1 h ([1]; pH 3.7): 36 mg/mL | solubility at 3 h ([1]; pH 3.7): 29 mg/mL | solubility at 1 h ([1]; pH 5.3): 26 mg/mL | solubility at 3 h ([1]; pH 5.3): 26 mg/mL | solubility at 1 h ([1]; pH 5.9): 34 mg/mL | solubility at 3 h ([1]; pH 5.9): 29 mg/mL | solubility at 1 h ([1]; pH 7.3): 25 mg/mL | solubility at 3 h ([1]; pH 7.3): 24 mg/mL | solubility at 1 h ([1]; pH 8.0): 29 mg/mL | solubility at 3 h ([1]; pH 8.0): 24 mg/mL | solubility at 1 h ([1]; pH 9.0): 16 mg/mL | solubility at 3 h ([1]; pH 9.0): 12 mg/mL | solubility at 1 h ([2]; USP buffer with acetic acid/sodium acetate, pH 2.9, aqueous buffer, pH 2.9, acetic acid/sodium acetate 1.0 M, 25° C., read-out: Solubility at 1 hr): 213 mg/mL | solubility at 1 h ([2]; USP buffer with acetic acid/sodium acetate, pH 3.1, aqueous buffer, pH 3.1, acetic acid/sodium acetate 0.5 M, 25° C., read-out: Solubility at 1 hr): 126 mg/mL | solubility at 1 h ([2]; USP buffer with acetic acid/sodium acetate, pH 3.2, aqueous buffer, pH 3.2, acetic acid/sodium acetate 2.0 M, 25° C., read-out: Solubility at 1 hr): 152 mg/mL | solubility at 1 h ([2]; USP buffer with acetic acid/sodium acetate, pH 3.9, aqueous buffer, pH 3.9, acetic acid/sodium acetate 1.0 M, 25° C., read-out: Solubility at 1 hr): 237 mg/mL | solubility at 1 h ([2]; USP buffer with acetic acid/sodium acetate, pH 3.9, aqueous buffer, pH 3.9, acetic acid/sodium acetate 2.0 M, 25° C., read-out: Solubility at 1 hr): 273 mg/mL | solubility at 1 h ([2]; USP buffer with acetic acid/sodium acetate, pH 4.2, aqueous buffer, pH 4.2, acetic acid/sodium acetate 0.5 M, 25° C., read-out: Solubility at 1 hr): 158 mg/mL | solubility at 1 h ([2]; USP buffer with acetic acid/sodium acetate, pH 4.7, aqueous buffer, pH 4.7, acetic acid/sodium acetate 2.0 M, 25° C., read-out: Solubility at 1 hr): 271 mg/mL | solubility at 1 h ([2]; USP buffer with acetic acid/sodium acetate, pH 4.8, aqueous buffer, pH 4.8, acetic acid/sodium acetate 1.0 M, 25° C., read-out: Solubility at 1 hr): 235 mg/mL | solubility at 1 h ([2]; USP buffer with acetic acid/sodium acetate, pH 5.7, aqueous buffer, pH 5.7, acetic acid/sodium acetate 1.0 M, 25° C., read-out: Solubility at 1 hr): 212 mg/mL | solubility at 1 h ([2]; USP buffer with acetic acid/sodium acetate, pH 5.9, aqueous buffer, pH 5.9, acetic acid/sodium acetate 2.0 M, 25° C., read-out: Solubility at 1 hr): 244 mg/mL | solubility at 1 h ([2]; USP buffer with acetic acid/sodium acetate, pH 6.9, aqueous buffer, pH 6.9, acetic acid/sodium acetate 1.0 M, 25° C., read-out: Solubility at 1 hr): 207 mg/mL | solubility at 1 h ([2]; USP buffer with acetic acid/sodium acetate, pH 6.9, aqueous buffer, pH 6.9, acetic acid/sodium acetate 2.0 M, 25° C., read-out: Solubility at 1 hr): 225 mg/mL | solubility at 1 h ([2]; USP buffer with acetic acid/sodium acetate, pH 7.7, aqueous buffer, pH 7.7, acetic acid/sodium acetate 1.0 M, 25° C., read-out: Solubility at 1 hr): 205 mg/mL | solubility at 1 h ([2]; USP buffer with acetic acid/sodium acetate, pH 7.8, aqueous buffer, pH 7.8, acetic acid/sodium acetate 2.0 M, 25° C., read-out: Solubility at 1 hr): 212 mg/mL | solubility at 1 h ([2]; USP buffer with acetic acid/sodium acetate, pH 8.2, aqueous buffer, pH 8.2, acetic acid/sodium acetate 0.5 M, 25° C., read-out: Solubility at 1 hr): 125 mg/mL | solubility at 1 h ([2]; USP buffer with acetic acid/sodium acetate, pH 8.9, aqueous buffer, pH 8.9, acetic acid/sodium acetate 0.5 M, 25° C., read-out: Solubility at 1 hr): 50 mg/mL | solubility at 1 h ([2]; USP buffer with acetic acid/sodium acetate, pH 8.9, aqueous buffer, pH 8.9, acetic acid/sodium acetate 1.0 M, 25° C., read-out: Solubility at 1 hr): 102 mg/mL | solubility at 1 h ([2]; USP buffer with acetic acid/sodium acetate, pH 9, aqueous buffer, pH 9.0, acetic acid/sodium acetate 2.0 M, 25° C., read-out: Solubility at 1 hr): 159 mg/mL | solubility at 1 h ([2]; acetic acid/sodium acetate buffer, pH 3, aqueous buffer, pH 3.0, acetic acid/sodium acetate 0.1 M, 25° C., read-out: Solubility at 1 hr): 20 mg/mL | solubility at 1 h ([2]; acetic acid/sodium acetate buffer, pH 3.8, aqueous buffer, pH 3.8, acetic acid/sodium acetate 0.1 M, 25° C., read-out: Solubility at 1 hr): 35 mg/mL | solubility at 1 h ([2]; acetic acid/sodium acetate buffer, pH 4.6, aqueous buffer, pH 4.6, acetic acid/sodium acetate 0.1 M, 25° C., read-out: Solubility at 1 hr): 36 mg/mL | solubility at 1 h ([2]; acetic acid/sodium acetate buffer, pH 4.7, aqueous buffer, pH 4.7, acetic acid/sodium acetate 0.5 M, 25° C., read-out: Solubility at 1 hr): 156 mg/mL | solubility at 1 h ([2]; acetic acid/sodium acetate buffer, pH 5.6, aqueous buffer, pH 5.6, acetic acid/sodium acetate 0.5 M, 25° C., read-out: Solubility at 1 hr): 123 mg/mL | solubility at 1 h ([2]; acetic acid/sodium acetate buffer, pH 6, aqueous buffer, pH 6.0, acetic acid/sodium acetate 0.1 M, 25° C., read-out: Solubility at 1 hr): 36 mg/mL | solubility at 1 h ([2]; acetic acid/sodium acetate buffer, pH 6.7, aqueous buffer, pH 6.7, acetic acid/sodium acetate 0.1 M, 25° C., read-out: Solubility at 1 hr): 31 mg/mL | solubility at 1 h ([2]; acetic acid/sodium acetate buffer, pH 6.8, aqueous buffer, pH 6.8, acetic acid/sodium acetate 0.5 M, 25° C., read-out: Solubility at 1 hr): 133 mg/mL | solubility at 1 h ([2]; acetic acid/sodium acetate buffer, pH 8.2, aqueous buffer, pH 8.2, acetic acid/sodium acetate 0.1 M, 25° C., read-out: Solubility at 1 hr): 31 mg/mL | solubility at 1 h ([2]; acetic acid/sodium acetate buffer, pH 9.4, aqueous buffer, pH 9.4, acetic acid/sodium acetate 0.1 M, 25° C., read-out: Solubility at 1 hr): 34 mg/mL | solubility at 1 h ([2]; acetic acid/sodium acetate ion mixtures, aqueous buffer, at acetate concentrations of 1.0 M and higher, read-out: solubility): > 200 mg/mL | solubility at 1 h ([3]; USP buffer with citric acid/sodium citrate, citric acid/sodium citrate 0.05 M, 25° C., read-out: Solubility at 1 hr): 121 mg/mL | solubility at 1 h ([3]; USP buffer with citric acid/sodium citrate, citric acid/sodium citrate 0.1 M, 25° C., read-out: Solubility at 1 hr): 159 mg/mL | solubility at 1 h ([3]; USP buffer with citric acid/sodium citrate, citric acid/sodium citrate 0.5 M, 25° C., read-out: Solubility at 1 hr): 240 mg/mL | solubility at 1 h ([3]; USP buffer with citric acid/sodium citrate, citric acid/sodium citrate 1.0 M, 25° C., read-out: Solubility at 1 hr): 245 mg/mL | solubility at 1 h ([3]; citric acid/sodium citrate ion mixtures, at citrate concentrations of 0.5 M and higher, read-out: solubility): > 200 mg/mL | solubility at 1 h ([4]; DL arginine mixtures, at DL arginine concentrations of 1.0 M and higher, read-out: solubility): > 200 mg/mL | solubility at 1 h ([4]; USP buffer with DL arginine, DL arginine 0.05 M, 25° C., read-out: Solubility at 1 hr): 13 mg/mL | solubility at 1 h ([4]; USP buffer with DL arginine, DL arginine 0.1 M, 25° C., read-out: Solubility at 1 hr): 19 mg/mL | solubility at 1 h ([4]; USP buffer with DL arginine, DL arginine 0.5 M, 25° C., read-out: Solubility at 1 hr): 142 mg/mL | solubility at 1 h ([4]; USP buffer with DL arginine, DL arginine 1.0 M, 25° C., read-out: Solubility at 1 hr): 233 mg/mL | solubility at 1 h ([4]; USP buffer with DL arginine, DL arginine 2.0 M, 25° C., read-out: Solubility at 1 hr): 226 mg/mL | solubility at 1 h ([5]; L-arginine mixtures, at L-arginine concentrations of 0.5 M and higher, read-out: solubility): > 200 mg/mL | solubility at 1 h ([5]; USP buffer with L-arginine, L-arginine 0.05 M, 25° C., read-out: Solubility at 1 hr): 39 mg/mL | solubility at 1 h ([5]; USP buffer with L-arginine, L-arginine 0.1 M, 25° C., read-out: Solubility at 1 hr): 82 mg/mL | solubility at 1 h ([5]; USP buffer with L-arginine, L-arginine 0.5 M, 25° C., read-out: Solubility at 1 hr): 226 mg/mL | solubility at 1 h ([6]; histidine 0.05 M): 43 mg/mL | solubility at 1 h ([6]; histidine 0.1 M): 75 mg/mL | solubility [7]: ~36 mg/mL
